Laboratory results reported in patent US10125100B2, “Kinase inhibitors” (Respivert Limited, priority 2014, dated 2018).

Test system: Jurkat cells
Experiment: (r) Cell cytotoxicity assay
Assay type: cell-based, human
Settings: 24 hours
Protocol: 1×10^5 Jurkat cells (immortalised human T lymphocytes) are added to the appropriate number of wells of a 96 well plate in 100 μL of media (RPMI supplemented with 10% foetal bovine serum). 1 μL of DMSO control (final concentration 1.0% v/v) or test compound (final concentration 20, 5 or 1 μg/mL) is added to the wells and incubated at 37° C., 5% CO2. After 24 hours, the plate is centrifuged at 1200 rpm for 3 minutes and the supernatant discarded. Cells are then resuspended in 150 μL (final concentration 7.5 μg/mL) of propidium iodide (PI) in PBS and incubated at 37° C., 5% CO2 for 15 minutes. After 15 minutes, cells are analysed by flow cytometry (BD accuri) using the FL3 window. The % viability is calculated as the % of cells that are PI negative in the test wells normalised to the DMSO control.

In the case of COc1cc(Nc2cc(Oc3ccc(NC(=O)Nc4cc(C(C)(C)C)cc(NS(C)(=O)=O)c4OC)c4ccccc34)ccn2)ccc1C(=O)N(C)CCN1CCOCC1 [17(ab), 4-[[4-[[4-[[5-tert-butyl-3-(methanesulfonamido)-2-methoxy-phenyl]carbamoylamino]-1-naphthyl]oxy]-2-pyridyl]amino]-2-methoxy-N-methyl-N-(2-morpholinoethyl)benzamide], the “% Viability at 1 μg/mL” value was 108.6%, the “% Viability at 5 μg/mL” value was 95.6% and the “% Viability at 20 μg/mL” value was 93.9%.

For COc1cc(Nc2nccc(Oc3ccc(NC(=O)Nc4cc(C(C)(C)C)cc(NS(C)(=O)=O)c4OC)c4ccccc34)n2)ccc1C(=O)NCCCN1CCOCC1 [17(ao), 4-((4-((4-(3-(5-(tert-Butyl)-2-methoxy-3-(methylsulfonamido)phenyl)ureido)naphthalen-1-yl)oxy)pyrimidin-2-yl)amino)-2-methoxy-N-(3-morpholinopropyl)benzamide], the “% Viability at 1 μg/mL” value was 89.2%, the “% Viability at 5 μg/mL” value was 16.5% and the “% Viability at 20 μg/mL” value was 1.6%.

In the case of COc1cc(Nc2nccc(Oc3ccc(NC(=O)Nc4cc(C(C)(C)C)cc(NS(C)(=O)=O)c4OC)c4ccccc34)n2)ccc1C(=O)NCCCN1CCN(C)CC1 [17(ap), 4-((4-((4-(3-(5-(tert-Butyl)-2-methoxy-3-(methylsulfonamido)phenyl)ureido)naphthalen-1-yl)oxy)pyrimidin-2-yl)amino)-2-methoxy-N-(3-(4-methylpiperazin-1-yl)propyl)benzamide], the “% Viability at 1 μg/mL” value was 97.8%, the “% Viability at 5 μg/mL” value was 40.1% and the “% Viability at 20 μg/mL” value was 0.6%.

In the case of COc1cc(Nc2nccc(Oc3ccc(NC(=O)Nc4cc(C(C)(C)C)cc(NS(C)(=O)=O)c4OC)c4ccccc34)n2)ccc1C(=O)NCCN1CCN(C)CC1 [17(aq), 4-((4-((4-(3-(5-(tert-Butyl)-2-methoxy-3-(methylsulfonamido)phenyl)ureido)naphthalen-1-yl)oxy)pyrimidin-2-yl)amino)-2-methoxy-N-(2-(4-methylpiperazin-1-yl)ethyl)benzamide], the “% Viability at 1 μg/mL” value was 95.1%, the “% Viability at 5 μg/mL” value was 0.2% and the “% Viability at 20 μg/mL” value was 1.3%.

COc1cc(Nc2cc(Oc3ccc(NC(=O)Nc4cc(C(C)(C)C)cc(NS(C)(=O)=O)c4OC)c4ccccc34)ccn2)ccc1C(=O)NCC(=O)O [17(ar), 2-(4-((4-((4-(3-(5-(tert-Butyl)-2-methoxy-3-(methylsulfonamido)phenyl)ureido)naphthalen-1-yl)oxy)pyridin-2-yl)amino)-2-methoxybenzamido)acetic acid] was tested, and the “% Viability at 1 μg/mL” value was 96.1%, the “% Viability at 5 μg/mL” value was 96.2% and the “% Viability at 20 μg/mL” value was 95.3%.

In the case of COc1cc(Nc2cc(Oc3ccc(NC(=O)Nc4cc(C(C)(C)C)cc(NS(C)(=O)=O)c4OC)c4ccccc34)ccn2)cc(OC)c1C(=O)NCCC1CCN(C)CC1 [17(at), 4-((4-((4-(3-(5-(tert-Butyl)-2-methoxy-3-(methylsulfonamido)phenyl)ureido)naphthalen-1-yl)oxy)pyridin-2-yl)amino)-2,6-dimethoxy-N-(2-(1-methylpiperidin-4-yl)ethyl)benzamide], the “% Viability at 1 μg/mL” value was 95.2%, the “% Viability at 5 μg/mL” value was 93.2% and the “% Viability at 20 μg/mL” value was 86.6%.

COc1cc(Nc2cc(Oc3ccc(NC(=O)Nc4cc(C(C)(C)C)cc(NS(C)(=O)=O)c4OC)c4ccccc34)ccn2)cc(OC)c1C(=O)NCCCN1CCN(C)CC1 [17(au), 4-((4-((4-(3-(5-(tert-Butyl)-2-methoxy-3-(methylsulfonamido)phenyl)ureido)naphthalen-1-yl)oxy)pyridin-2-yl)amino)-2,6-dimethoxy-N-(3-(4-methylpiperazin-1-yl)propyl)benzamide] was tested, and the “% Viability at 1 μg/mL” value was 94.0%, the “% Viability at 5 μg/mL” value was 91.8% and the “% Viability at 20 μg/mL” value was 80.6%.

In the case of COc1cc(Nc2cc(Oc3ccc(NC(=O)Nc4cc(C(C)(C)C)cc(NS(C)(=O)=O)c4OC)c4ccccc34)ccn2)ccc1C(=O)NCCC(=O)O [17(ay), 3-(4-((4-((4-(3-(5-(tert-Butyl)-2-methoxy-3-(methylsulfonamido)phenyl)ureido)-naphthalen-1-yl)oxy)pyridin-2-yl)amino)-2-methoxybenzamido)propanoic acid], the “% Viability at 1 μg/mL” value was 95.3%, the “% Viability at 5 μg/mL” value was 94.6% and the “% Viability at 20 μg/mL” value was 90.1%.

In the case of COc1cc(Nc2nccc(Oc3ccc(NC(=O)Nc4cc(C(C)(C)C)cc(NS(C)(=O)=O)c4OC)c4ccccc34)n2)cc(OC)c1C(=O)NCCN1CCN(C)CC1 [17(az), 4-((4-((4-(3-(5-(tert-Butyl)-2-methoxy-3-(methylsulfonamido)phenyl)ureido)naphthalen-1-yl)oxy)pyrimidin-2-yl)amino)-2,6-dimethoxy-N-(2-(4-methylpiperazin-1-yl)ethyl)benzamide], the “% Viability at 1 μg/mL” value was 105.4%, the “% Viability at 5 μg/mL” value was 93.1% and the “% Viability at 20 μg/mL” value was 4.5%.

For COc1cc(Nc2cc(Oc3ccc(NC(=O)Nc4cc(C(C)(C)C)cc(NS(C)(=O)=O)c4OC)c4ccccc34)ccn2)ccc1S(=O)(=O)N(C)CCN1CCN(C)CC1 [17(bb), 4-((4-((4-(3-(5-(tert-Butyl)-2-methoxy-3-(methylsulfonamido)phenyl)ureido)naphthalen-1-yl)oxy)pyridin-2-yl)amino)-2-methoxy-N-methyl-N-(2-(4-methylpiperazin-1-yl)ethyl)benzenesulfonamide], the “% Viability at 1 μg/mL” value was 90.9%, the “% Viability at 5 μg/mL” value was 19.2% and the “% Viability at 20 μg/mL” value was 0.2%.

For COc1c(NC(=O)Nc2ccc(Oc3ccnc(Nc4ccc(C(=O)O)c(N(C)C)c4)n3)c3ccccc23)cc(C(C)(C)C)cc1NS(C)(=O)=O [17(bc), 4-((4-((4-(3-(5-(tert-Butyl)-2-methoxy-3-(methylsulfonamido)phenyl)ureido)naphthalen-1-yl)oxy)pyrimidin-2-yl)amino)-2-(dimethylamino)benzoic acid], the “% Viability at 1 μg/mL” value was 93.9%, the “% Viability at 5 μg/mL” value was 89.2% and the “% Viability at 20 μg/mL” value was 10.8%.

In the case of COc1cc(Nc2cc(Oc3ccc(NC(=O)Nc4cc(C(C)(C)C)cc(NS(C)(=O)=O)c4OC)c4ccccc34)ccn2)ccc1C(=O)NCCCCCN(C)C [17(bd), 4-((4-((4-(3-(5-(tert-Butyl)-2-methoxy-3-(methylsulfonamido)phenyl)ureido)naphthalen-1-yl)oxy)pyridin-2-yl)amino)-N-(5-(dimethylamino)pentyl)-2-methoxybenzamide], the “% Viability at 1 μg/mL” value was 85.8%, the “% Viability at 5 μg/mL” value was 28.7% and the “% Viability at 20 μg/mL” value was 0.1%.

CCN1CCN(CCNC(=O)c2ccc(Nc3cc(Oc4ccc(NC(=O)Nc5cc(C(C)(C)C)cc(NS(C)(=O)=O)c5OC)c5ccccc45)ccn3)cc2OC)CC1 [17(be), 4-((4-((4-(3-(5-(tert-Butyl)-2-methoxy-3-(methylsulfonamido)phenyl)ureido)naphthalen-1-yl)oxy)pyridin-2-yl)amino)-N-(2-(4-ethylpiperazin-1-yl)ethyl)-2-methoxybenzamide] was tested, and the “% Viability at 1 μg/mL” value was 92.4%, the “% Viability at 5 μg/mL” value was 0.7% and the “% Viability at 20 μg/mL” value was 0.5%.

COc1cc(Nc2cc(Oc3ccc(NC(=O)Nc4cc(C(C)(C)C)cc(NS(C)(=O)=O)c4OC)c4ccccc34)ccn2)ccc1C(=O)NCCN1CCN(C(C)C)CC1 [17(bf), 4-((4-((4-(3-(5-(tert-Butyl)-2-methoxy-3-(methylsulfonamido)phenyl)ureido)naphthalen-1-yl)oxy)pyridin-2-yl)amino)-N-(2-(4-isopropylpiperazin-1-yl)ethyl)-2-methoxybenzamide] was tested, and the “% Viability at 1 μg/mL” value was 90.7%, the “% Viability at 5 μg/mL” value was 1.5% and the “% Viability at 20 μg/mL” value was 0.6%.

COc1cc(Nc2cc(Oc3ccc(NC(=O)Nc4cc(C(C)(C)C)cc(NS(C)(=O)=O)c4OC)c4ccccc34)ccn2)ccc1C(=O)NCCC1(O)CCN(C)CC1 [17(bg), 4-((4-((4-(3-(5-(tert-Butyl)-2-methoxy-3-(methylsulfonamido)phenyl)ureido)naphthalen-1-yl)oxy)pyridin-2-yl)amino)-N-(2-(4-hydroxy-1-methylpiperidin-4-yl)ethyl)-2-methoxy benzamide] was tested, and the “% Viability at 1 μg/mL” value was 86.5%, the “% Viability at 5 μg/mL” value was 60.0% and the “% Viability at 20 μg/mL” value was 0.3%.

In the case of COc1cc(Nc2cc(Oc3ccc(NC(=O)Nc4cc(C(C)(C)C)cc(NS(C)(=O)=O)c4OC)c4ccccc34)ccn2)ccc1C(=O)N(C)CCN1CCN(C)CC1 [17(bh), 4-((4-((4-(3-(5-(tert-Butyl)-2-methoxy-3-(methylsulfonamido)phenyl)ureido)naphthalen-1-yl)oxy)pyridin-2-yl)amino)-2-methoxy-N-methyl-N-(2-(4-methylpiperazin-1-yl)ethyl)benzamide], the “% Viability at 1 μg/mL” value was 99.5%, the “% Viability at 5 μg/mL” value was 67.8% and the “% Viability at 20 μg/mL” value was 0.6%.

COc1cc(Nc2cc(Oc3ccc(NC(=O)Nc4cc(C(C)(C)C)cc(NS(C)(=O)=O)c4OC)c4ccccc34)ccn2)ccc1C(=O)NCCN1CCN(C)CC1(C)C [17(bi), 4-((4-((4-(3-(5-(tert-Butyl)-2-methoxy-3-(methylsulfonamido)phenyl)ureido)naphthalen-1-yl)oxy)pyridin-2-yl)amino)-2-methoxy-N-(2-(2,2,4-trimethylpiperazin-1-yl)ethyl)benzamide] was tested, and the “% Viability at 1 μg/mL” value was 97.4%, the “% Viability at 5 μg/mL” value was 0.8% and the “% Viability at 20 μg/mL” value was 0.6%.

For COc1cc(Nc2cc(Oc3ccc(NC(=O)Nc4cc(C(C)(C)C)cc(NS(C)(=O)=O)c4OC)c4ccccc34)ccn2)ccc1C(=O)N[C@@H](CO)C(=O)O [17(bj), (S)-2-(4-((4-((4-(3-(5-(tert-Butyl)-2-methoxy-3-(methylsulfonamido)phenyl)ureido)-naphthalen-1-yl)oxy)pyridin-2-yl)amino)-2-methoxybenzamido)-3-hydroxypropanoic acid], the “% Viability at 1 μg/mL” value was 96.2%, the “% Viability at 5 μg/mL” value was 96.6% and the “% Viability at 20 μg/mL” value was 94.8%.
